From US8415469B2, “Compounds and methods for kinase modulation, and indications therefor” (Plexxikon Inc., priority 2005, dated 2013)

Assays:
Assay type in all cases: biochemical
FGFR1 = biological target: T1, FGFR1 (Homo sapiens, UniProt P11362, C488A/C584S); test: AlphaScreen kinase assay, FGFR1; details: read-out: IC50, activity toward kinase FGFR
T1 construct: P1351.pET N6 BI-PTP FGFR A458-E765-X C488A, C584S; made in house; host or cells: E. coli (PTP1B co-expressed)

B-Raf = biological target: T2, B-Raf (Homo sapiens, UniProt P15056); test: AlphaScreen kinase assay, B-Raf; details: read-out: IC50, activity toward kinase B-Raf
T2 construct: purchased Upstate Biotechnology
T2 sequence (P15056 whole entry): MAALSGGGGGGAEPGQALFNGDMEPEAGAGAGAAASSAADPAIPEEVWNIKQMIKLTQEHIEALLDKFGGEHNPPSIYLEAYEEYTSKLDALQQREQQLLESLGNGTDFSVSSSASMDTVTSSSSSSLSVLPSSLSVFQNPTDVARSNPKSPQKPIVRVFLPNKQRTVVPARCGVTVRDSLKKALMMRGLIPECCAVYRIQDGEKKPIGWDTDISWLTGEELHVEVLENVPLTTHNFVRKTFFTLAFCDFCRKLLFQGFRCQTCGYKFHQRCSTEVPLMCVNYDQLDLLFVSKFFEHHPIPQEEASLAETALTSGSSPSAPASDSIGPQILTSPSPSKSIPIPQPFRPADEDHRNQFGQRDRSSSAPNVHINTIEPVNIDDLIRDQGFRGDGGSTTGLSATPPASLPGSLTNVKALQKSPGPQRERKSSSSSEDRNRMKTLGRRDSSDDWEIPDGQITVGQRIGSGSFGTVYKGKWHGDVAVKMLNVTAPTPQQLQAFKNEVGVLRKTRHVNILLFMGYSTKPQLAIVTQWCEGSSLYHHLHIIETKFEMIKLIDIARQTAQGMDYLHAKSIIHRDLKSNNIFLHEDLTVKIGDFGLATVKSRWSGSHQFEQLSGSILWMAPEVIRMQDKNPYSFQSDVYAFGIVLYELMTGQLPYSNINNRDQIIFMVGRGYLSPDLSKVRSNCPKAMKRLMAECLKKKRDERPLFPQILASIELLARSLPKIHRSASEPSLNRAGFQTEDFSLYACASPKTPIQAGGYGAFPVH
Source text: AlphaScreen assay was used to screen additional kinases. The assay is similarly dependent on the phosphorylation of a peptide substrate. In this assay, an antibody that recognizes phosphorylated substrate is bound to an acceptor bead. The peptide substrate is attached to biotin, which binds to a donor head that contains streptavidin. Thus phosphorylated substrate is bound by antibody and streptavidin, bringing the donor and acceptor heads into close proximity when kinase is not inhibited. The donor produces singlet oxygen which results in emission from the acceptor when they are in close proximity. Conversely, when kinase is inhibited, the donor and acceptor beads are not associated and the emission from the acceptor is reduced.
AlphaScreen assays were done using compounds dissolved in DMSO to a concentration of 20 mM. The compounds were diluted accordingly to the desired final concentrations in each sample well, using 1:3 serial dilution for a total of 8 concentration points. Plates were prepared such that each kinase reaction is 20 μl in 1× kinase buffer, 5% DMSO and 10 μM ATP. After incubation of the kinase reaction for 1 hour at room temperature, 5 μl of donor beads in stop buffer (50 mM EDTA in 1× kinase buffer) was added, the sample was mixed and incubated for 20 minutes at room temperature before adding 5 μl of acceptor beads in stop buffer. The samples were incubated for 60 minutes at room temperature and the signal per well was read on AlphaQuest reader.

Fms = biological target: T3, Fms (Homo sapiens, UniProt P07333); test: AlphaScreen kinase assay, Fms; details: read-out: IC50, activity toward kinase Fms
T3 construct: purchased Upstate Biotechnology
T3 sequence (P07333 20-972): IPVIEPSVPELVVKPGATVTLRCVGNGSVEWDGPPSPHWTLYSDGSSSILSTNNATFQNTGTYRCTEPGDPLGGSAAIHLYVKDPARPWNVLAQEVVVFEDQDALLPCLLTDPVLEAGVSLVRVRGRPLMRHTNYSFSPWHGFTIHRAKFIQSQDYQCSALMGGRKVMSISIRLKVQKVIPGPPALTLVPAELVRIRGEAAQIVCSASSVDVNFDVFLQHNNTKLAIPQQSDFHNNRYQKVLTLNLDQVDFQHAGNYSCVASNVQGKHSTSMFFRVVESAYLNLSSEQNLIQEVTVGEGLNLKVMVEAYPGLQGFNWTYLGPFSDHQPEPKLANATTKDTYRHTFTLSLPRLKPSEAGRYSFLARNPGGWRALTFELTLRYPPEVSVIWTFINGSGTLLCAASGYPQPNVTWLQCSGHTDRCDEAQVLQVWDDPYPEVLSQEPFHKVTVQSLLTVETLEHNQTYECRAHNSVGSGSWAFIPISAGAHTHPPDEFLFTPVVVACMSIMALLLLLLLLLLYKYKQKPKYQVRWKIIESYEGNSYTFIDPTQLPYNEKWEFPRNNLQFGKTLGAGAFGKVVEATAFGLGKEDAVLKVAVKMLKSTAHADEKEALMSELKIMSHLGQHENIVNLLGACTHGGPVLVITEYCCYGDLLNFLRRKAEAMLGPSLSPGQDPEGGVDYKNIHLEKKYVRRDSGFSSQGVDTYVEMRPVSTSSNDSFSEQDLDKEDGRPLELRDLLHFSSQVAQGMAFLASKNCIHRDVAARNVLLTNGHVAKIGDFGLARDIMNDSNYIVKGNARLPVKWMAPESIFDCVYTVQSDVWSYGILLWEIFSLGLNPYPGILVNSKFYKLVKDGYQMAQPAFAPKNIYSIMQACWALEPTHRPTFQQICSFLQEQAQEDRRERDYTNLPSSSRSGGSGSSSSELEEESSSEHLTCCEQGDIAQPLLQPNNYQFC

Flt1 = biological target: T4, Flt1 (Homo sapiens, UniProt P17948); test: AlphaScreen kinase assay, Flt1; details: read-out: IC50, activity toward kinase Flt1
T4 construct: P1826.pETN6 BI-PTP FLT1 M799-D1165-X WT; His6 (N); made in house; host or cells: E. coli (PTP1B co-expressed)
T4 sequence (P17948 with tags, fused parts or gaps): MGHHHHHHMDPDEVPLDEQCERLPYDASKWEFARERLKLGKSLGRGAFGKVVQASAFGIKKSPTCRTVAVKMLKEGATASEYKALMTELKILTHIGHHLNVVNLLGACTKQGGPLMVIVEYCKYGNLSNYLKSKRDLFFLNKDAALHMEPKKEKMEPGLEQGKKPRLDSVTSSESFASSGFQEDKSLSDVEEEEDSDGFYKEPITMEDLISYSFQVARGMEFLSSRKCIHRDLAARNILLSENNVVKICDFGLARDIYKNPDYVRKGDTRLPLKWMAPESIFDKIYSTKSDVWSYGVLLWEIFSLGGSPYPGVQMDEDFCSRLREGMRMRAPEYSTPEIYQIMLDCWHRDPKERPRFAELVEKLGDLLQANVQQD

Kit = biological target: T5, Kit (Homo sapiens, UniProt P10721); test: AlphaScreen kinase assay, Kit; details: read-out: IC50, activity toward kinase Kit
T5 construct: P1332.N6 BI PTP KIT M552-K948-X COD; His6 (N); made in house; host or cells: E. coli (PTP1B co-expressed)
T5 sequence (P10721 with tags, fused parts or gaps): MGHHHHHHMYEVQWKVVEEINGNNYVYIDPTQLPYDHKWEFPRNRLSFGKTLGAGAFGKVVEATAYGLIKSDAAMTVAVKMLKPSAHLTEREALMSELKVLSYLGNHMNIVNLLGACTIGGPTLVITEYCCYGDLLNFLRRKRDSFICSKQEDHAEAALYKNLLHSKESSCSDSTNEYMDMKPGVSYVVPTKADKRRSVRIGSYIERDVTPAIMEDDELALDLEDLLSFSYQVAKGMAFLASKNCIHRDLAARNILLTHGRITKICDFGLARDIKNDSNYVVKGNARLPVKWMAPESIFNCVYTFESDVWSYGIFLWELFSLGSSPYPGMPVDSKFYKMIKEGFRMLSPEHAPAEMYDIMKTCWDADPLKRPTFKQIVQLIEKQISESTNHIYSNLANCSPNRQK

B-Raf V600E = biological target: T6, B-Raf V600E (Homo sapiens, UniProt P15056, V600E); test: AlphaScreen kinase assay, B-Raf V600E; details: read-out: IC50, activity toward kinase B-Raf V600E
T6 construct: P4254. pFastBacBD-CDC37 BRAF D437-K722-X, V600E; His6 with pFastBac HT leader (TEV site) (N); made in house; host or cells: Sf9 (baculovirus; chaperone CDC37 co-expressed)
T6 sequence (P15056 with tags, fused parts or gaps V600E): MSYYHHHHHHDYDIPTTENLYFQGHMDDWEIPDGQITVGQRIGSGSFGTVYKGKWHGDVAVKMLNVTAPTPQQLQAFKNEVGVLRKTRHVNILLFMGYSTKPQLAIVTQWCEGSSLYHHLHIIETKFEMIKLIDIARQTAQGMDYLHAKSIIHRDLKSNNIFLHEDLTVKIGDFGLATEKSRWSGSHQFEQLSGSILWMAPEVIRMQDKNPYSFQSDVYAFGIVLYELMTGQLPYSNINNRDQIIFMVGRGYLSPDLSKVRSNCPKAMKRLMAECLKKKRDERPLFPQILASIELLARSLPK

Measured: IC50

T1 sequence (P11362 458-765 C488A/C584S): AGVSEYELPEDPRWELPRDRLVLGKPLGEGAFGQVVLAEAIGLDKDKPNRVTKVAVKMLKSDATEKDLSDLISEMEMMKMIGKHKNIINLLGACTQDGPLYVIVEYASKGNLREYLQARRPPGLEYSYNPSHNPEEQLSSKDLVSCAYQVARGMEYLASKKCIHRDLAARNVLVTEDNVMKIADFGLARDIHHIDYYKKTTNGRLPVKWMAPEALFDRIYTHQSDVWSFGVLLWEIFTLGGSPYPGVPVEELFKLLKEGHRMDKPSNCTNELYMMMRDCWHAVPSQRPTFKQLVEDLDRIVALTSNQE

COc1ccnc2[nH]cc(Cc3ccc(NCc4ccc(C(F)(F)F)cc4)nc3)c12 [Compound P-1110]
≤ 10 µM: FGFR1 | B-Raf | Fms | Flt1

CC(C)(C)OC(=O)N(Cc1ccc(Cl)cc1)c1ccc(C(=O)c2c[nH]c3ncccc23)cn1 [Compound P-1194]
not listed: B-Raf
≤ 10 µM: all other assays above

OC(c1c(Cl)ccc(OCC(F)(F)F)c1F)c1c[nH]c2ncc(Br)cc12 (stereo not drawn) [Compound P-1393, (5-Bromo-1H-pyrrolo[2,3-b]pyridin-3-yl)-[6-chloro-2-fluoro-3-(2,2,2-trifluoro-ethoxy)-phenyl]-methanol]
≤ 10 µM: FGFR1 | Kit | Fms | Flt1

COC(=O)/C=C/c1cccc(-c2cnc3[nH]cc(C(=O)c4cccc(NS(C)(=O)=O)c4)c3c2)c1 [Compound P-1404]
≤ 10 µM: FGFR1 | Kit | Fms | Flt1

CC(=O)Nc1cccc(-c2cnc3[nH]cc(C(=O)c4cc(Cl)cc(Cl)c4)c3c2)c1 [Compound P-1423, N-{3-[3-(3,5-Dichloro-benzoyl)-1H-pyrrolo[2,3-b]pyridin-5-yl]-phenyl}-acetamide]
not listed: B-Raf
≤ 10 µM: all other assays above

CS(=O)(=O)Nc1cccc(-c2cnc3[nH]cc(C(=O)c4cccc(C(F)(F)F)c4)c3c2)c1 [Compound P-1425, N-{3-[3-(3-Trifluoromethyl-benzoyl)-1H-pyrrolo[2,3-b]pyridin-5-yl]-phenyl}-methanesulfonamide]
≤ 10 µM: Kit | Fms | B-Raf V600E | Flt1

CS(=O)(=O)Nc1cccc(-c2cnc3[nH]cc(C(=O)c4cc(F)cc(C(F)(F)F)c4)c3c2)c1 [Compound P-1427, N-{3-[3-(3-Fluoro-5-trifluoromethyl-benzoyl)-1H-pyrrolo[2,3-b]pyridin-5-yl]-phenyl}-methanesulfonamide]
≤ 10 µM: Kit | Fms | Flt1

CS(=O)(=O)Nc1cccc(-c2cnc3[nH]cc(C(=O)c4cccc(OC(F)(F)F)c4)c3c2)c1 [Compound P-1428, N-{3-[3-(3-Trifluoromethoxy-benzoyl)-1H-pyrrolo[2,3-b]pyridin-5-yl]-phenyl}-methanesulfonamide]
≤ 10 µM: FGFR1 | Kit | Fms | Flt1

COc1cc(OC)cc(C(O)c2c[nH]c3ncc(Br)cc23)c1 (stereo not drawn) [Compound P-1460]
≤ 10 µM: FGFR1 | Kit | Fms | Flt1

COc1cc(OC)cc(C(OC)c2c[nH]c3ncc(Br)cc23)c1 (stereo not drawn) [Compound P-1461]
≤ 10 µM: FGFR1 | Kit | Fms | Flt1

COc1cc(OC)cc(C(=O)c2c[nH]c3ncc(Br)cc23)c1 [Compound P-1463, (5-Bromo-1H-pyrrolo[2,3-b]pyridin-3-yl)-(3,5-dimethoxy-phenyl)-methanone]
≤ 10 µM: FGFR1 | Kit | Fms | Flt1

COc1cc(Cc2c[nH]c3ncc(Br)cc23)cc(OC)c1 [Compound P-1464, 5-Bromo-3-(3,5-dimethoxy-benzyl)-1H-pyrrolo[2,3-b]pyridine]
≤ 10 µM: FGFR1 | Kit | Fms | Flt1

c1ccc(Cc2cccc(Nc3c[nH]c4ncccc34)c2)cc1 [Compound P-1497, (3-Benzyl-phenyl)-(1H-pyrrolo[2,3-b]pyridin-3-yl)-amine]
≤ 10 µM: Kit | Fms | Flt1

Oc1ccc(Nc2c[nH]c3ncccc23)c(F)c1 [Compound P-1499, 3-Fluoro-4-(1H-pyrrolo[2,3-b]pyridin-3-ylamino)-phenol]
≤ 10 µM: Kit | Fms | Flt1

CS(=O)(=O)Nc1cccc(-c2cnc3[nH]cc(C(=O)c4ccc5c(c4)OC(F)(F)O5)c3c2)c1 [Compound P-1564, N-{3-[3-(2,2-Difluoro-benzo[1,3]dioxole-5-carbonyl)-1H-pyrrolo[2,3-b]pyridin-5-yl]-phenyl}-methanesulfonamide]
not listed: B-Raf
≤ 10 µM: all other assays above

COc1cnc2[nH]cc(C(=O)c3c(F)ccc(NS(=O)(=O)c4ccc(F)cc4)c3F)c2c1 [Compound P-1582, N-[2,4-Difluoro-3-(5-methoxy-1H-pyrrolo[2,3-b]pyridine-3-carbonyl)-phenyl]-4-fluoro-benzenesulfonamide]
not listed: Fms
≤ 10 µM: all other assays above

CCCCNC(=O)Nc1ccc(F)c(C(=O)c2c[nH]c3ncc(Cl)cc23)c1F [Compound P-1586, 1-Butyl-3-[3-(5-chloro-1H-pyrrolo[2,3-b]pyridine-3-carbonyl)-2,4-difluoro-phenyl]-urea]
≤ 10 µM: B-Raf | Fms | B-Raf V600E | Flt1

COc1cnc2[nH]cc(Cc3c(F)ccc(NS(=O)(=O)c4cccc(C(F)(F)F)c4)c3F)c2c1 [Compound P-1590, N-[2,4-Difluoro-3-(5-methoxy-1H-pyrrolo[2,3-b]pyridin-3-ylmethyl)-phenyl]-3-trifluoromethyl-benzenesulfonamide]
≤ 10 µM: Kit | B-Raf | B-Raf V600E | Flt1

Nc1cccc(C(=O)c2c[nH]c3ncc(-c4cccc(OC(F)(F)F)c4)cc23)c1 [Compound P-1593]
≤ 10 µM: FGFR1 | Kit | B-Raf | Flt1

O=S(=O)(Nc1ccc(F)c(Cc2c[nH]c3ncc(Cl)cc23)c1F)c1cccc(C(F)(F)F)c1 [Compound P-1600, N-[2,4-Difluoro-3-(5-chloro-1H-pyrrolo[2,3-b]pyridin-3-ylmethyl)-phenyl]-3-trifluoromethyl-benzenesulfonamide]
≤ 10 µM: B-Raf | B-Raf V600E | Flt1

CS(=O)(=O)Nc1ccc(F)c(Cc2c[nH]c3ncc(-c4cccnc4)cc23)c1F [Compound P-1605, N-[2,4-Difluoro-3-(5-pyridin-3-yl-1H-pyrrolo[2,3-b]pyridin-3-ylmethyl)-phenyl]-methanesulfonamide]
not listed: Fms
≤ 10 µM: all other assays above

CCCS(=O)(=O)Nc1cccc(C(=O)c2c[nH]c3ncc(Br)cc23)c1C [Compound P-1608]
not listed: Kit
≤ 10 µM: all other assays above

Cc1c(NS(=O)(=O)N(C)C)cccc1C(=O)c1c[nH]c2ncc(Br)cc12 [Compound P-1609]
not listed: Kit
≤ 10 µM: all other assays above

CCCCN(C)C(=O)Nc1ccc(F)c(C(=O)c2c[nH]c3ncc(Cl)cc23)c1F [Compound P-1612, 1-Butyl-3-[3-(5-chloro-1H-pyrrolo[2,3-b]pyridine-3-carbonyl)-2,4-difluoro-phenyl]-1-methyl-urea]
≤ 10 µM: B-Raf | Fms | B-Raf V600E | Flt1
